The source of these data is ChEMBL document CHEMBL3232931 (J Med Chem, 2014).

The target in series [1] is T1, Cathepsin K (Homo sapiens, UniProt P43235).
T1 sequence (P43235 whole entry): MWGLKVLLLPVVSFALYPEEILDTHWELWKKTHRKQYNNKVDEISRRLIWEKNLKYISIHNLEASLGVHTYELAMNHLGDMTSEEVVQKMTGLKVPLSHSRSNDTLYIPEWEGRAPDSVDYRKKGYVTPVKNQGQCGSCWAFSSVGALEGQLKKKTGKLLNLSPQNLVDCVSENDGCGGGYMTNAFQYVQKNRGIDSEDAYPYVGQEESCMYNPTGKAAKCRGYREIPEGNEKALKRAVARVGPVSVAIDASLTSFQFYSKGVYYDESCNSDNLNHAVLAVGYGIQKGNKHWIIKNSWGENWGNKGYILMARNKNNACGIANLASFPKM
Nature of the series: Inhibition of human cathepsin K using fluorogenic peptide as substrate.

The subject of series [2] is HEK293. Nature of the series: Cytotoxicity against human HEK293 cells assessed as cell viability after 48 hrs by Cell Titer-Glo luminescent assay. The series is classed as cell-based. Conditions: hek293, 48 h; call rule not given here.
For series [3], the target named is T2, Ubiquitin carboxyl-terminal hydrolase isozyme L1 (Homo sapiens, UniProt P09936).
T2 sequence (P09936 whole entry): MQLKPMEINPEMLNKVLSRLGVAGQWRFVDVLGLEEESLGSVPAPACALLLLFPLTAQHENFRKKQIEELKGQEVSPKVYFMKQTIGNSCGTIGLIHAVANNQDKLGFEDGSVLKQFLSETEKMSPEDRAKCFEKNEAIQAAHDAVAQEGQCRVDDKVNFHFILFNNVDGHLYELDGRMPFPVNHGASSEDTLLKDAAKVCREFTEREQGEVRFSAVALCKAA
Nature of the series: Inhibition of human UCHL1.

Series [4] deals with T3, Ubiquitin carboxyl-terminal hydrolase 8 (Homo sapiens, UniProt P40818).
T3 sequence (P40818 whole entry): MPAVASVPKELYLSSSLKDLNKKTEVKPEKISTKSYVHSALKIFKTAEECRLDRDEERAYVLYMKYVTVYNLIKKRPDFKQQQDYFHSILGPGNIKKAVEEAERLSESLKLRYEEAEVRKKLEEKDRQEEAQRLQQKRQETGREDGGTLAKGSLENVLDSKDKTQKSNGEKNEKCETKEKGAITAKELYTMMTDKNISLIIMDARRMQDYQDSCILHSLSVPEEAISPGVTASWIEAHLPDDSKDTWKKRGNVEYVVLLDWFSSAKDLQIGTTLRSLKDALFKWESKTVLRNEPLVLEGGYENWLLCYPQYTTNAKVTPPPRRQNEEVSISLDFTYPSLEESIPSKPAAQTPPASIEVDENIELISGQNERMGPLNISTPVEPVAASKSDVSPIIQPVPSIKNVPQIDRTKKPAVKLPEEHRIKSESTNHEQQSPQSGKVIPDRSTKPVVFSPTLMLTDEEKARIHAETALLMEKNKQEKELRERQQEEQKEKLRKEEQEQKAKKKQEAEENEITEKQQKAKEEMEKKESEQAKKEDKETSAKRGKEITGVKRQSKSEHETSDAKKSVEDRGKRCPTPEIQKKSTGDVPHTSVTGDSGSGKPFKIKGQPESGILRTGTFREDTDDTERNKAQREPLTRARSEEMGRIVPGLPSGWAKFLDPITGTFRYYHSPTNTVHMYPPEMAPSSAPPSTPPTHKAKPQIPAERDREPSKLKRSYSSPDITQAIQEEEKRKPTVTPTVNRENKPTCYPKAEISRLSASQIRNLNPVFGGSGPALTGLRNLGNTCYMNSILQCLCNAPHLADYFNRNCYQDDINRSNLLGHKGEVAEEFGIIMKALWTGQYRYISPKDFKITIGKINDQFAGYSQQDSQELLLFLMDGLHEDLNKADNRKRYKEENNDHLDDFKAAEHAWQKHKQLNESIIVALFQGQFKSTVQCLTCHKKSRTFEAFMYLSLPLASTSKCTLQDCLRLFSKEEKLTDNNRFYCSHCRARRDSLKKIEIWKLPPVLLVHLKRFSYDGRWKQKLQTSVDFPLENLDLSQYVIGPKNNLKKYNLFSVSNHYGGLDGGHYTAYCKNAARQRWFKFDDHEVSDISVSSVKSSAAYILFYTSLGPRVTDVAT
Nature of the series: Inhibition of human USP8 using Ub-rhodamine 110 as substrate.

The target of series [5] is T4, Ubiquitin carboxyl-terminal hydrolase 2 (Homo sapiens, UniProt O75604).
T4 sequence (O75604 whole entry): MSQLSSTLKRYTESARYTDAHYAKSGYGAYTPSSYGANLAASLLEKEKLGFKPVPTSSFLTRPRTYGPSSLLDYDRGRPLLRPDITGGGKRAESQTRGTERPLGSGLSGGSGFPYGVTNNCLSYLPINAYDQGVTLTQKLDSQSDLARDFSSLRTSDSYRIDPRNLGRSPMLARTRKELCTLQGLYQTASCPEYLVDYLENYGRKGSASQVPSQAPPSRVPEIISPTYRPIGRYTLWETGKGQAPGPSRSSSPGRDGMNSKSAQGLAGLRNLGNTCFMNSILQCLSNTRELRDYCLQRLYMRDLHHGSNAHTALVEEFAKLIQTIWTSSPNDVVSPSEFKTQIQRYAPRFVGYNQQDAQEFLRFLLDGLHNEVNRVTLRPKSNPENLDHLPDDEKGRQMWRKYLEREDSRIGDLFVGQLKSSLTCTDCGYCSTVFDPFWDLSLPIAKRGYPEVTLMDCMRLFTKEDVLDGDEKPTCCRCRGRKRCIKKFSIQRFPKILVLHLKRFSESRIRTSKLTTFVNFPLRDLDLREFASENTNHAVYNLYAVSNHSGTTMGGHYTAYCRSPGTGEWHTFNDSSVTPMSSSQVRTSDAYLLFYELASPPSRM
Nature of the series: Inhibition of human USP2 using Ub-rhodamine 110 as substrate.

A short description of series [6]: Cytotoxicity against african green monkey Vero E6 cells assessed as cell viability after 48 hrs by Cell Titer-Glo luminescent assay. To be noted: chlorocebus sabaeus. The series is classed as cell-based.
For series [7], the target named is T5, Ubiquitin carboxyl-terminal hydrolase 2 (Homo sapiens) (UniProt O75604).
T5 sequence (whole entry): T4 sequence (O75604 whole entry)
The experiment in a line: Inhibition of human USP2 using Ub-rhodamine 110 as substrate at 31 uM.

Series [8] addresses T6, Ubiquitin carboxyl-terminal hydrolase 8 (Homo sapiens) (UniProt P40818).
T6 sequence (whole entry): T3 sequence (P40818 whole entry)
Nature of the series: Inhibition of human USP8 using Ub-rhodamine 110 as substrate at 31 uM.

Series [9] relates to Liver. Nature of the series: Half life in mouse liver microsomes at 1 uM. The format is ADME.
Series [10] addresses T7, Caspase-3 (Homo sapiens) (UniProt P42574).
T7 sequence (whole entry): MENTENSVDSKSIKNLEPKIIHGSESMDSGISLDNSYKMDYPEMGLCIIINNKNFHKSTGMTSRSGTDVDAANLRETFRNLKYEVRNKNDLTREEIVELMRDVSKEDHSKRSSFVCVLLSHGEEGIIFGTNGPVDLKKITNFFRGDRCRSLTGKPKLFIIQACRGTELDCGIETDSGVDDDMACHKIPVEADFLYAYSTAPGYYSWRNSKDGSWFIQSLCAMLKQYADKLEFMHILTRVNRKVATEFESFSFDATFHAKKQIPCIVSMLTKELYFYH
The experiment in a line: Inhibition of human caspase-3 using fluorogenic peptide as substrate at 31 uM.

Series [11] deals with Ubiquitin carboxyl-terminal hydrolase 20 (Homo sapiens, UniProt Q9Y2K6). The experiment in a line: Inhibition of human USP20 using Ub-rhodamine 110 as substrate.

SMILES strings stand for the structures. Some results are limits rather than exact numbers.

Ubiquitin carboxyl-terminal hydrolase 20, sequence (Q9Y2K6 whole entry): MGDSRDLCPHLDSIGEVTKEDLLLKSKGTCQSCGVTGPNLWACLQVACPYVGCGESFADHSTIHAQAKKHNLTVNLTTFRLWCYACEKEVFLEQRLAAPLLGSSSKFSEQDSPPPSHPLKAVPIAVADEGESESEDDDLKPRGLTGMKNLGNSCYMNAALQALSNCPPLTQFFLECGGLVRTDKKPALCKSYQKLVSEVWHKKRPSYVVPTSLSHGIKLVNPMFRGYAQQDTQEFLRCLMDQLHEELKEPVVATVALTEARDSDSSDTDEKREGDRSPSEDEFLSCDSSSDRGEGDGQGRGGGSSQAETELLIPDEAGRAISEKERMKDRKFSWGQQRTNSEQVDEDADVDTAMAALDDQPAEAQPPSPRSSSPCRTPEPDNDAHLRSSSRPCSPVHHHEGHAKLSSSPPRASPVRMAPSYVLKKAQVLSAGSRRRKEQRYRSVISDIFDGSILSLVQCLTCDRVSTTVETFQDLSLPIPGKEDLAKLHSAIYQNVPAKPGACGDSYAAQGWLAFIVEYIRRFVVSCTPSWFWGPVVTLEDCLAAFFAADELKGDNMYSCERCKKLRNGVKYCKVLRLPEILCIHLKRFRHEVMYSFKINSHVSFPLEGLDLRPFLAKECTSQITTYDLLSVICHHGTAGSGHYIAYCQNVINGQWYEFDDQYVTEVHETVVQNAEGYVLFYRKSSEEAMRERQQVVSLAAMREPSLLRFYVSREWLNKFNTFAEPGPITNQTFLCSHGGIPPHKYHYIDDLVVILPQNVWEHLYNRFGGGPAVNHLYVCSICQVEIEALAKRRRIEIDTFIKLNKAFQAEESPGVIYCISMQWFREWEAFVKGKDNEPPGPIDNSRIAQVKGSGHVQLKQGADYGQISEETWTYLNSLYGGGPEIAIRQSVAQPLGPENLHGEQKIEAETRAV

On to `C[C@H](c1cccc2ccccc12)N1CCC(C(=O)NCc2cccc(F)c2)CC1`, for which the 50% inhibitory concentration (IC50) result in [1] was “Not Active”; in series [3], “Not Active”; in [4], over 100 µM; in series [5] it was “Not Active”; in series [11] (read-out: IC50) it was over 100 µM. The 50% cytotoxic concentration (CC50) was 73 µM in series [2] and over 100 µM in [6]. Besides, the figures for the inhibition in [7], in series [8] and in [10] were under 10%, 10% and under 10%, respectively. Also, the t1/2 in series [9] is 2.8 min.
Consider `C[C@H](c1cccc2ccccc12)N1CCC(C(=O)NCc2ccc3c(c2)OCO3)CC1`, for which the IC50 entry in series [1] was “Not Active”; in series [3], “Not Active”; in series [4], over 100 µM; in series [5] it was “Not Active”; in [11], “Not Active”. The 50% cytotoxic concentration (CC50) in series [2] and in [6] was over 100 µM in each case. The inhibition in series [7] was under 10%; in [8] it was 10%; in series [10], under 10%. For the same compound, the t1/2 in [9] is 1.6 min.
Consider `CC(=O)Nc1cccc(CNC(=O)C2CCN([C@H](C)c3cccc4ccccc34)CC2)c1`, for which the IC50 entry in series [1] was “Not Active”; in [3], “Not Active”; in series [4], over 100 µM; in series [5] (read-out: IC50) it was over 100 µM; in series [11] (read-out: IC50), over 100 µM. The CC50 is 68 µM in series [2] and over 100 µM in [6]. Moreover, the inhibition is 10% in series [7], 10% in series [8] and under 10% in series [10]. This compound also displayed a t1/2 in series [9] of 7 min.
With `C[C@H](c1cccc2ccccc12)N1CCC(C(=O)NCc2ccc(F)cc2)CC1`, the IC50 result in series [1] is “Not Active”; in [3], “Not Active”; in series [4] it was over 100 µM; in [5], “Not Active”; in series [11] (read-out: IC50), over 100 µM. Further, the CC50 is 73 µM in series [2] and over 100 µM in series [6]. Moreover, the results for the inhibition in series [7], in series [8] and in series [10] were under 10%, 10% and under 10%, respectively.
